Converted amounts (≈) assume the structure as drawn. “And” between values parts separate entries of the source, which are not always exact repeats. Equal entries are not always repeated.
Legend:
[1] = Precipitation of NCL812 in assay media; format: physicochemical
Streptococcus pneumoniae = test: Minimum inhibitory concentration assay (CLSI), Str. pneumoniae isolates; format: cell-based
Method: Minimum inhibitory concentration tests were performed according to CLSI Standards (CLSI 2008). […] The solutions were then serially diluted across the row, leaving 2 columns for positive and negative controls. A bacterial suspension was prepared by adding fresh colonies obtained from an overnight culture on Sheep Blood Agar (SBA) to a 9.1 g/L saline solution. This suspension was adjusted to a concentration of between 4×10^8 and 5×10^8 CFU/mL. Concentration of the suspension was determined by measuring optical density (OD) using a spectrophotometer at a wavelength of 600 nm where the correct concentration was determined to have an optical density of between 1.00 and 1.20. One milliliter of this suspension was added to 9 mL of saline before being added to all wells, excluding the negative control wells, in 10 μL volumes giving a final concentration of between 4×10^5 and 5×10^5 CFU/mL in each well. The tests were then incubated for 24 hours at 37° C. and then assessed both visually and using OD readings from a microplate reader at a wavelength of 600 nm. These tests were performed in duplicate but repeated if discrepancies were observed.
The minimum inhibitory concentration (MIC) was determined to be the lowest concentration of antibiotic that prevented growth of bacteria both visually and using OD readings. […]

E. faecalis USA01 = test: MBC test (CLSI), non-VRE E. faecalis isolate
S. aureus KC01 and MK01 = test: MBC test (CLSI), non-MRSA S. aureus isolates
[2] = tested on: Staphylococcus pseudintermedius; test: MBC testing (CLSI), S. pseudintermedius isolates; format: cell-based
Method: After the MICs were determined, the minimum bactericidal concentrations were performed to determine if these compounds are bacteriostatic or bacteriocidal.

[3] = tested on: RNA synthesis in S. aureus ATCC 29213; test: RNA synthesis, [3H] uridine incorporation; format: cell-based, Staphylococcus aureus; settings: 0.25 to 8-fold the MIC
Method: Cells were grown at 35° C. overnight on Trypticase Soy agar. A colony from the plate was used to inoculate 10 ml of Mueller Hinton broth II (MHBII), and the culture was grown to early exponential growth phase (OD600=0.2 to 0.3) while incubating in a shaker at 35° C. and 200 rpm.
When cells reached early exponential phase, 100 μl of culture was added to triplicate wells containing various concentrations of test compound or control antibiotics (5 μl) at 20× the final concentration in 100% DMSO. A 5% DMSO treated culture served as the “no drug” control for all experiments. Cells were added in MHBII at 105% to account for the volume of drug added to each reaction or in M9 minimal medium for protein synthesis reactions. Following 15 min incubation at room temperature, either [3H] thymidine (DNA synthesis), [3H] uridine (RNA synthesis) or [3H] leucine (protein synthesis) was added at 0.5-1.0 μCi per reaction, depending on the experiment. Reactions were allowed to proceed at room temperature for 15-30 min and then stopped by adding 12 μl of cold 5% trichloroacetic acid (TCA) or 5% TCA/2% casamino acids (protein synthesis only). […] After washing three times with 5 ml of cold 5% TCA, the filters were rinsed two times with 5 ml 100% ethanol, allowed to dry, and then counted using a Beckman LS3801 liquid scintillation counter.

S. pneumoniae = test: MBC, pneumococcal isolates; format: cell-based, Streptococcus pneumoniae; settings: isolate WCH16
Method: [Micro-broth dilutions and 96-well trays are prepared by the following method: 90 μL of 4% LHB: CAMHB is aliquotted into all wells using a multichannel pipette. 90 μl of working antimicrobial stocks were no serial diluted down the tray by a 1:2 dilution. Negative broth controls and dilution control were taken into account when planning the set up of a 96-well tray.] 10 μL of bacterial suspension was then added to the appropriate wells in the 96 well tray. Appropriate positive (no antimicrobial), negative (no antimicrobial or bacteria) and negative dilution (a serial dilution control of antimicrobial and broth) controls were included in each assay. […] The MBC was determined by a 99.95% inhibition of S. pneumoniae, taking into account the dilution factor. MICs and MBCs were determined in quadruplicate and the mode was taken as the representative value. The MIC50, MIC90 and MIC range and MBC50, MBC90 and MBC range were determined according to CLSI standards. The MIC50 and MIC90, or MBC50 and MBC90, are defined by the lowest concentrations which, when all the MICs and MBCs of the isolates are arranged from lowest to highest, inhibited the 50th and 90th percentile of the total amount of isolates, respectively.

With `N=C(N/N=C/c1ccc(Cl)cc1)N/N=C/c1ccc(Cl)cc1` [NCL812, 1,2-bis[(E)-(4-chlorophenyl)methylideneamino]guanidine] as the compound, how does the “Precipitation of NCL812 observed at” value ([1]; MIC plates in Mueller Hinton II Broth without inoculum) read?
Its value is ≥ 8 µg/mL.

What about the precipitation observed at ([1]; Mueller Hinton broth II (DNA and RNA synthesis assays), MIC […] μg/ml) of the same compound?
The precipitation observed at was 4 to 8 fold the MIC.

What about the MIC50 (Streptococcus pneumoniae) of the same compound?
Its MIC50 is 4 µg/mL (≈ 12 µM).

And the MIC90 (Streptococcus pneumoniae)?
The MIC90 was 4 µg/mL (≈ 12 µM).

What about the “MBC test: Number of Bacteria Growing after 24 hours per ml of sample” value (shortened to “MBC test: Number … per ml of sample”) (E. faecalis USA01; 4 μg/ml) of the same compound?
Its value is 488 CFU/ml.

What about the “MBC test: growth on Sheep Blood Agar” value (E. faecalis USA01; 4 μg/ml) of the same compound?
Its value is “+”.

What about the “MBC test: growth on Sheep Blood Agar” value (E. faecalis USA01; 8 μg/ml) of the same compound?
The value was “+”.

What about the “MBC test: growth on Sheep Blood Agar” value (E. faecalis USA01; 16 μg/ml) of the same compound?
The value was “+”.

And the “MBC test: Number … per ml of sample” value (E. faecalis USA01; 32 μg/ml)?
Its value is 7 CFU/ml.

What about the “MBC test: growth on Sheep Blood Agar” value (E. faecalis USA01; 32 μg/ml) of the same compound?
Its value is “+”.

What about the “MBC test: Number … per ml of sample” value (E. faecalis USA01; 64 μg/ml) of the same compound?
Its value is 1 CFU/ml.

What about the “MBC test: growth on Sheep Blood Agar” value (E. faecalis USA01; 64 μg/ml) of the same compound?
The value was “+”.

What about the “MBC test: growth on Sheep Blood Agar” value (E. faecalis USA01; […]) of the same compound?
The value was “+”.

And the “MBC test: growth on Sheep Blood Agar” value (S. aureus KC01 and MK01; S. aureus KC01, 2 μg/ml)?
The value was “+”.

What about the “MBC test: growth on Sheep Blood Agar” value (S. aureus KC01 and MK01; S. aureus KC01, 4 μg/ml) of the same compound?
The value was 0 and +.

And the “MBC test: growth on Sheep Blood Agar” value (S. aureus KC01 and MK01; S. aureus KC01, 8 μg/ml)?
Its value is 0 and +.

And the “MBC test: growth on Sheep Blood Agar” value (S. aureus KC01 and MK01; S. aureus KC01, 16 μg/ml)?
The value was 0.

What about the “MBC test: growth on Sheep Blood Agar” value (S. aureus KC01 and MK01; S. aureus KC01, 32 μg/ml) of the same compound?
Its value is 0.

And the “MBC test: growth on Sheep Blood Agar” value (S. aureus KC01 and MK01; S. aureus KC01, 64 μg/ml)?
The value was 0.

And the “MBC test: growth on Sheep Blood Agar” value (S. aureus KC01 and MK01; S. aureus KC01, […])?
The value was 0.

And the “MBC test: Number … per ml of sample” value (S. aureus KC01 and MK01; S. aureus MK01, 2 μg/ml)?
The value was 5 CFU/ml.

What about the “MBC test: growth on Sheep Blood Agar” value (S. aureus KC01 and MK01; S. aureus MK01, 2 μg/ml) of the same compound?
The value was 0.

And the “MBC test: growth on Sheep Blood Agar” value (S. aureus KC01 and MK01; S. aureus MK01, 4 μg/ml)?
The value was 0.

And the “MBC test: growth on Sheep Blood Agar” value (S. aureus KC01 and MK01; S. aureus MK01, 8 μg/ml)?
Its value is 0.

And the “MBC test: growth on Sheep Blood Agar” value (S. aureus KC01 and MK01; S. aureus MK01, 16 μg/ml)?
Its value is 0 (N) and 0.

And the “MBC test: growth on Sheep Blood Agar” value (S. aureus KC01 and MK01; S. aureus MK01, 32 μg/ml)?
The value was 0 (N) and 0.

What about the “MBC test: growth on Sheep Blood Agar” value (S. aureus KC01 and MK01; S. aureus MK01, 64 μg/ml) of the same compound?
Its value is 0 (N) and 0.

What about the “activity based on minimal bactericidal concentrations (MBC)” value [2] of the same compound?
Its value is “bactericidal”.

And the “inhibition of RNA synthesis” value [3]?
Its value is “very similar to the DNA synthesis study”.

What about the MBC (S. pneumoniae) of the same compound?
The MBC was “autolysis”.

Source: patent US9539223B2, “Methods for treating bacterial infections” (Neoculi Pty Ltd., priority 2013, dated 2017)
